The results in this text go back to ChEMBL document CHEMBL3351573, “Synthesis and cholinesterase inhibition of cativic acid derivatives” (Bioorg Med Chem, 2014).

In series [1] the target is T1, Acetylcholinesterase (Torpedo californica, UniProt P04058).
Description: Inhibition of Torpedo californica AChE by spectrophotometry based Ellman's method
Series [2] in a line: Selectivity index, ratio of IC50 for horse serum BChE to IC50 for Torpedo californica AChE.
Series [3] addresses Cholinesterase (Equus caballus, UniProt P81908).
Description: Inhibition of horse serum BChE by spectrophotometry based Ellman's method
Series [4] is described as follows: Cytotoxicity against human SH-SY5Y cells assessed as LDH release at 1 uM after 24 hrs (reference value: 0.02 +/- 0.35%). The format is cell-based. (LDH in the medium is a marker of cell lysis.)
Series [5] deals with Acetylcholinesterase (Homo sapiens) (UniProt P22303). Briefly: Inhibition of AChE in human SH-SY5Y cells assessed as enzyme activity at 1 uM after 1 hr by Ellman's method. The arrangement: scale not given: the % may be the effect or the level left. The format is cell-based.
Series [6] is described as follows: Cytotoxicity against human SH-SY5Y cells assessed as LDH release at 5 uM after 24 hrs (reference value: 0.02 +/- 0.35%). The format is cell-based.
The nature of series [7]: Cytotoxicity against human SH-SY5Y cells assessed as LDH release at 1 uM after 1 hr (reference value: -0.78 +/- 3.50%). The format is cell-based.
The target in series [8] is Acetylcholinesterase (Homo sapiens) (UniProt P22303). Briefly: Inhibition of AChE in human SH-SY5Y cells assessed as enzyme activity at 5 uM after 1 hr by Ellman's method. Details: scale not given: the % may be the effect or the level left. The format is cell-based. For orientation: In Ellman's method for cholinesterases, released thiocholine reacts with DTNB.
Series [9] in a line: Cytotoxicity against human SH-SY5Y cells assessed as change in cell morphology at 1 to 5 uM after 1 hr to 24 hrs by phase contrast microscopy. The format is cell-based.
Series [10] deals with T1, Acetylcholinesterase. Briefly: Mixed type inhibition of Torpedo californica AChE by Lineweaver-Burk plot. The arrangement: species or system Tetronarce californica.
Series [11] in a line: Cytotoxicity against human SH-SY5Y cells assessed as LDH release at 5 uM after 1 hr (reference value: -0.78 +/- 3.50%). The format is cell-based.

Cholinesterase, sequence (P81908 whole entry): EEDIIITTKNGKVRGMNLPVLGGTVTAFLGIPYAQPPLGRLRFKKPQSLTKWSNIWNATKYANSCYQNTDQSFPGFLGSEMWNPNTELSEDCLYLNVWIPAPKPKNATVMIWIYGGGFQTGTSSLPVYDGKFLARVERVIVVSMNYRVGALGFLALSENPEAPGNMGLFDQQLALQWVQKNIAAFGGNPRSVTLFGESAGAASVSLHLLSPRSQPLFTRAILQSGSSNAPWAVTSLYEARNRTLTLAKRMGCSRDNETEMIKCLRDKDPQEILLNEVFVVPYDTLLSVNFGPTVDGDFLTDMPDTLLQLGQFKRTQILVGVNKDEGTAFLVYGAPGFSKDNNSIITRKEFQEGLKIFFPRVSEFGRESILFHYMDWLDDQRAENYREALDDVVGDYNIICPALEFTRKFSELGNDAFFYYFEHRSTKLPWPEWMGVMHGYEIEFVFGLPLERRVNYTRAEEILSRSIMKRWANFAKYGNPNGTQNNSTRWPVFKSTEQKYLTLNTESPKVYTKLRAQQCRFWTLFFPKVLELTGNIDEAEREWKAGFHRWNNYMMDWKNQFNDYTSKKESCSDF
T1 sequence (P04058 whole entry): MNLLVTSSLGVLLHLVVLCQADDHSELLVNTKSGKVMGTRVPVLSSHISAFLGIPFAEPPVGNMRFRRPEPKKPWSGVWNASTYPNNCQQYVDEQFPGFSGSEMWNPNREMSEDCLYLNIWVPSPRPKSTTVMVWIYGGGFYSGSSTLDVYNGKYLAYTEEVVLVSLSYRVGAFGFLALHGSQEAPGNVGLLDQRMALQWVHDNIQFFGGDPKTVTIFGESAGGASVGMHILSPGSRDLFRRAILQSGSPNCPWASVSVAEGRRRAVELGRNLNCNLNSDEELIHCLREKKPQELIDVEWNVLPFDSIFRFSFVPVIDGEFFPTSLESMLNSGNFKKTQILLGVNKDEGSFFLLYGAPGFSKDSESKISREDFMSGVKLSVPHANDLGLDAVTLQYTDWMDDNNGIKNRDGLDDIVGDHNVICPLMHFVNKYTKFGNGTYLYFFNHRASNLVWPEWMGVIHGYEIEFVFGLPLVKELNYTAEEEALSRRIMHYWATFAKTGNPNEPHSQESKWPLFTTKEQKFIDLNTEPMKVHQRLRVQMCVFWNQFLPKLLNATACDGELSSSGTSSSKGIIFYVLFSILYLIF
Acetylcholinesterase (Homo sapiens), sequence (P22303 whole entry): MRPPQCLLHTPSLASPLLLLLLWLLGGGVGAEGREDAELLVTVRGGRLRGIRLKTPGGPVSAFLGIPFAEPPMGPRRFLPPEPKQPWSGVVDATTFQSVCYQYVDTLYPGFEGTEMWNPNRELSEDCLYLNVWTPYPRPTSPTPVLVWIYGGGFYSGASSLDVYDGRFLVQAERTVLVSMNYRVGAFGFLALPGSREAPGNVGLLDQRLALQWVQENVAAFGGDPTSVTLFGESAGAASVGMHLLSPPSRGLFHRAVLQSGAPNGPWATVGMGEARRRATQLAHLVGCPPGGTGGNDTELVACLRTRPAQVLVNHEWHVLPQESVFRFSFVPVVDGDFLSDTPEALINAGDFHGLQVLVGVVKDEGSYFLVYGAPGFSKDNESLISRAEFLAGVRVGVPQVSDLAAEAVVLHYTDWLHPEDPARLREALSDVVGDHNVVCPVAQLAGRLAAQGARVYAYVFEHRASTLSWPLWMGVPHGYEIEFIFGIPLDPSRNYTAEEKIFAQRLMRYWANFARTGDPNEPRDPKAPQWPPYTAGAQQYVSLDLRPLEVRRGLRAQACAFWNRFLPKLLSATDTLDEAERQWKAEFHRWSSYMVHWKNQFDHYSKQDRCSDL

Usually IC50 stands for the point on the concentration scale where inhibition reaches its midpoint. `CCN(CC)CCCCCCOC(=O)C[C@@H](C)CC[C@H]1C(CO)=CC[C@H]2C(C)(C)CCC[C@]12C`: the IC50 in series [1] came out at 17.8 µM; in [3], 15.2 µM. For the same compound, the Ratio IC50 in series [2] came to 0.9.

Turning to `C[C@@H](CC[C@H]1C(CO)=CC[C@H]2C(C)(C)CCC[C@]12C)CC(=O)OCCCN1CCOCC1`, the IC50 in [1] and in series [3] was greater than 50 µM throughout.

For `C[C@@H](CC[C@H]1C(CO)=CC[C@H]2C(C)(C)CCC[C@]12C)CC(=O)OCCCCN1CCCCC1`, the values for the IC50 in series [1] and in [3] were 15 µM and 37.1 µM, respectively. The Ratio IC50 in [2] came out at 2.5.

`C[C@@H](CC[C@H]1C(CO)=CC[C@H]2C(C)(C)CCC[C@]12C)CC(=O)OCCCCCN1CCCC1`: the IC50 came out at 5.5 µM in [1] and 22.1 µM in series [3]. For the same compound, the Ratio IC50 in series [2] was determined as 4.1.

With `C[C@@H](CC[C@H]1C(CO)=CC[C@H]2C(C)(C)CCC[C@]12C)CC(=O)OCCCCCN1CCOCC1`, the half-inhibitory concentration (IC50) in series [1] and in series [3] was greater than 50 µM throughout.

With `C[C@@H](CC[C@H]1C(CO)=CC[C@H]2C(C)(C)CCC[C@]12C)CC(=O)OCCN1CCCC1`, the IC50 was greater than 50 µM in series [1] and 17 µM in [3]. Also, in series [2], the Ratio IC50 was less than 0.3.

`C[C@@H](CC[C@H]1C(CO)=CC[C@H]2C(C)(C)CCC[C@]12C)CC(=O)OCCCCCCN1CCCC1`: the values for the IC50 in series [1] and in series [3] were 13.5 µM and 10.6 µM, respectively. For the same compound, in series [2], the Ratio IC50 is 0.8.

By Ki is commonly meant the dissociation constant of the complex between target and ligand, obtained from inhibition or displacement. Take `C[C@@H](CC[C@H]1C(CO)=CC[C@H]2C(C)(C)CCC[C@]12C)CC(=O)OCCCCN1CCCC1`: the Activity in series [4] was -0.02%; in series [5], 67.3%; in series [6] it was 0.11%; in [7], 1.34%; in series [8] it was 30.4%; in [9], “Non-toxic”. Moreover, the Activity in series [11] is recorded as 2.33%. In addition, the IC50 in series [1] turned out to be 3.2 µM; in series [3] it was 10.3 µM. The Ratio IC50 in [2] was 3.2. This compound gave a Ki in [10] of 4.6 µM.

In the case of `C[C@@H](CC[C@H]1C(CO)=CC[C@H]2C(C)(C)CCC[C@]12C)CC(=O)O`, the IC50 in [1] turned out to be 21.1 µM; in [3], 171 µM. Moreover, the Ratio IC50 in [2] stood at 8.1.

As to `C[C@@H](CC[C@H]1C(CO)=CC[C@H]2C(C)(C)CCC[C@]12C)CC(=O)OCCCN1CCCC1`, the IC50 in [1] was found to be 33.8 µM; in series [3], 43.8 µM. For the same compound, the Ratio IC50 in series [2] was determined as 1.3.

In the case of `C[C@@H](CC[C@H]1C(CO)=CC[C@H]2C(C)(C)CCC[C@]12C)CC(=O)OCCCCCN1CCCCC1`, the IC50 in [1] stood at 14.7 µM; in series [3], 24.8 µM. In addition, the Ratio IC50 in [2] is 1.7.

In the case of `C[C@@H](CC[C@H]1C(CO)=CC[C@H]2C(C)(C)CCC[C@]12C)CC(=O)OCCN1CCOCC1`, the concentration for half-maximal inhibition (IC50) in series [1] and in series [3] was greater than 50 µM throughout.

Consider `CCN(CC)CCCCOC(=O)C[C@@H](C)CC[C@H]1C(CO)=CC[C@H]2C(C)(C)CCC[C@]12C`, for which the IC50 in [1] was determined as 9.4 µM; in series [3], 23.6 µM. Moreover, in series [2], the Ratio IC50 came out at 1.8.

Consider `C[C@@H](CC[C@H]1C(CO)=CC[C@H]2C(C)(C)CCC[C@]12C)CC(=O)OCCCCCCN1CCCCC1`, for which the IC50 came out at 14.5 µM in [1] and 10.5 µM in series [3]. For the same compound, the Ratio IC50 in series [2] was determined as 0.7.

Take `C[C@@H](CC[C@H]1C(CO)=CC[C@H]2C(C)(C)CCC[C@]12C)CC(=O)OCCCCCCN1CCOCC1`: the IC50 in series [1] and in [3] was greater than 50 µM in each case.

Turning to `CCN(CC)CCOC(=O)C[C@@H](C)CC[C@H]1C(CO)=CC[C@H]2C(C)(C)CCC[C@]12C`, the figures for the IC50 in [1] and in series [3] were greater than 50 µM and 39.9 µM, respectively. The Ratio IC50 in series [2] is less than 0.8.

Regarding `CCN(CC)CCCCCOC(=O)C[C@@H](C)CC[C@H]1C(CO)=CC[C@H]2C(C)(C)CCC[C@]12C`, the IC50 worked out at 13.8 µM in [1] and 27.2 µM in [3]. Further, the Ratio IC50 in series [2] is 2.

Regarding `C[C@@H](CC[C@H]1C(CO)=CC[C@H]2C(C)(C)CCC[C@]12C)CC(=O)OCCN1CCCCC1`, the IC50 in series [1] and in [3] was greater than 50 µM each time.

For `C[C@@H](CC[C@H]1C(CO)=CC[C@H]2C(C)(C)CCC[C@]12C)CC(=O)OCCCN1CCCCC1`, the IC50 in [1] turned out to be 6.2 µM; in series [3] it was 34.7 µM. Also, the Ratio IC50 in series [2] was 5.6.

With `C[C@@H](CC[C@H]1C(CO)=CC[C@H]2C(C)(C)CCC[C@]12C)CC(=O)OCCCCN1CCOCC1`, the IC50 in series [1] and in series [3] was greater than 50 µM throughout.

For `CCN(CC)CCCOC(=O)C[C@@H](C)CC[C@H]1C(CO)=CC[C@H]2C(C)(C)CCC[C@]12C`, the IC50 in series [1] worked out at 11.8 µM; in series [3], 18.1 µM. Also, the Ratio IC50 in series [2] turned out to be 1.5.
